“Also recorded” adds a separate entry of the source.
How the values were obtained:
[1] = tested on: spinal cord GABAA receptors
Experimental: A study was performed on five rats. Alphadolone ([…]) was suspended in normal saline. The five rats were randomised to receive on two different occasions on two different days either […]. This was a cross-over study such that on the following occasion if a rat had received vehicle on the first occasion then it received alphadolone on the second occasion and vice versa. This dosing was randomised and the observer making measurements of pain thresholds was blinded to the nature of the drug given to these rats. In each experiment, the electrical current threshold in the neck and the tail were measured every five minutes until three stable readings were obtained. Then either vehicle or alphadolone 750 mg per kg suspended in saline was instilled into the stomach via an oesophageal needle. Five minutes later and every five minutes thereafter, electrical current thresholds for nociception were measured in the skin of the tail and neck At 60 minutes 10 pmol of bicuculline in 5 μl 6% dextrose was injected intrathecally down a Portex catheter that had been implanted previously in the lumbar sub arachnoid space to lie adjacent to the most caudal segments of spinal cord responsible for tail innervation.

[2] = Glaxo in-house experiments; cited from earlier work
[3] = Plasma alphadolone and glucuronide metabolite levels after oral capsule; assay type: in vivo, human
Experimental: The patients who had alphadolone administered orally to them, had blood samples taken at time 0, the time of drug administration, and at ½ hour intervals for 6 hours This blood was sent off to a laboratory at the Royal Melbourne Institute of Technology for analysis of blood alphadolone levels. It can be seen from Example 5 that no measurable alphadolone was found in the blood of these patients who were reporting useful analgesia with decreased morphine requirements. […] These experiments mean that very little or no free alphadolone was present in these patient's blood, but large quantities of alphadolone was present as the glucuronide metabolite. This evidence supports further our claim that the analgesic effects of alphadolone and alphadolone acetate given by oral and intraperitoneal routes involves activity of metabolites in general and the glucuronide in particular.
All patients had 10 ml of blood taken from a vein immediately prior to the capsule administration and also 30 minutes, one hour, 1½ hours, 2 hours, 3 hours, 4 hours and 6 hours after capsule administration. The blood was placed in heparinised tubes, centrifuged and the plasma decanted for later analysis of blood alphadolone levels by the Key Centre for Applied and Nutritional Toxicology, Royal Melbourne Institute of Technology.
No alphadolone was detected in the plasma. The lower limit of detection was 50 ng/ml. […] In 5 of these patients the metabolite was detected in the first sample taken after the alphadolone capsule had been given.

[4] = tested on: patients scheduled for knee reconstruction surgery; experiment: Phase 1 study of oral alphadolone: side effects (sedation, nausea, respiratory depression, disorientation); assay type: in vivo, human
Experimental: The study consisted of two phases. The first phase was a dose escalation study. At any time during this phase as well as the second phase, if the patient was randomised to receive placebo then a capsule containing lactose was administered orally at the time of medication. If the patient was randomised to receive alphadolone then the first patient so randomised received 25 mg alphadolone acetate orally. The patient was monitored for efficacy of the medication and side effects. If there were no unacceptable side effects such as respiratory depression or severe sedation or disorientation then the next patient randomised to receive the active treatment received a higher dose. The dose escalation planned was in the order, 25, 50, 100, 250, 500 and 1000 mg. The original plan was to continue dose escalation until unacceptable side effects occurred and then to reduce the dose to go onto the next, second, phase of the study, a double-blind comparison of the dose just below the high dose that produced unacceptable side effects compared with placebo. However, the view of the Ethics Committee was that this was more appropriate to a drug company sponsored trial and they ordered that the trial should switch from the dose escalation phase to the comparison phase when there was clear evidence of efficacy.
No premedication was given. The patients were taken to the operating theatre and subjected to a standardised anaesthetic regime that consisted of a propofol induction followed by a propofol infusion and the muscle relaxant of the anaesthetist's preference The trachea was intubated and lungs ventilated with a mixture of nitrous oxide and oxygen. Morphine 1-2 mg intravenously was given as indicated by normal signs of depth of anaesthesia. The amount of morphine used in the operating theatre was recorded in the case record form. After the end of surgery, the muscle relaxant was reversed with atropine and neostigmine and the patient sent to recovery. In the recovery ward the patient was reintroduced to the patient controlled analgesia machine containing morphine to deliver a dose of 1 mg increments with a lock out time of 5 minutes. The patient spent approximately half an hour in recovery ward and was then sent to the ward. The following observations and measurements were made one hour before, half an hour before, and just before giving the test medication (placebo or alphadolone) orally with 100 ml of water. The observations were continued every half hour thereafter until six hours after the capsule had been given:
Sedation on a four point score none, mild, moderate, unseasonable;
Nausea score rating none, mild, moderate, severe vomiting;
Respiratory depression scores as
none—respiratory rate greater than 10 oxygen saturation greater than 95%
mild—respiratory rate great than 6 and less than 10 oxygen saturation greater than 95%
moderate—respiratory rate less than 6 but oxygen saturation greater than 95%
unreasonable—respiratory rate less than 6 and/or oxygen saturation less than 95%
Light-headedness scored from none (no dizziness), mild (light dizziness but no nystagmus), moderate (feels dizzy and has nystagmus), severe (very dizzy with nausea);
Slurred speech scored as none, mild, moderate, severe;
Presence of disorientation;
Gaze evoked nystagmus scored as none, mild (1-2 jerks), moderate (constant slow jerks), severe (fast jerks and feeling dizzy);
Lack of co-ordination with two tests (a) close eyes touch nose with finger (b) touch 1, 2, 3, 4 fingers in turn with thumb; classified as none (both tests accomplished), mild (both tests accomplished but slowly), moderate (one test achieved after two attempts), severe (failed both tests after two attempts at each).
The total number of 0's, 1's, 2's, 3's and 4's recorded during the six hours after capsule administration were totalled for the five placebo treated and seven alphadolone treated patients and entered into a contingency table (table 2).

[5] = tested on: rats; experiment: Loss of righting reflex and loss of coordination in the rotarod test after intraperitoneal dosing
Excerpt: Groups of 10 rats were examined for the duration of the loss of righting reflex and loss of coordination in the rotarod test and also for antinociceptive effects in the electrical current threshold test measured in the tail. […] Thus we were able to compare the duration of sedation and anaesthesia and quantity of antinociception following intraperitoneal administration of the neurosteroid mixture and also following the components of the mixture at the doses which were given when the combination was used.
We have gone on to test the ability for alphadolone to produce sedation. We have given doses up to […] intraperitoneally of alphadolone.

[6] = plasma treated with glucuronidase, 250 mg, 5 patients, 500 mg, one patient
[7] = six hours after capsule, 100, 250 and 500 mg orally, n = 7

CC(=O)OCC(=O)[C@H]1CC[C@H]2[C@@H]3CC[C@H]4C[C@H](O)CC[C@]4(C)[C@H]3C(=O)C[C@]12C [alphadolone, 21-acetoxy-3alpha-hydroxy-5alpha-pregnane-11,20-dione]
electrical current threshold in the skin of the tail and the neck ([1]; 750 mg per kg intragastric, suspended in saline, five rats, cross-over vs vehicle): sharp rise in the electrical current threshold
sedation (observation of the animals) ([1]; 750 mg per kg intragastric, five rats): no animals seemed to be sedated in any form whatsoever
antinociception (pain relief) ([1]; given intragastrically to rats): powerful antinociception
sedation ([1]; range of doses intragastrically to rats): no sedation, even at very large doses
intravenous anaesthetic potency relative to alphaxolone [2]: one-third the potency
alphadolone in plasma (lower limit of detection) ([3]; oral capsule, samples up to 6 hours, without glucuronidase treatment): < 50 ng/mL
alphadolone metabolite (glucuronide) in plasma [3, 6]: microgram/ml concentrations
alphadolone metabolite in plasma at the 6 hour sampling time point [3, 6]: still present, although decaying
side effects: sedation, nausea, disorientation, respiratory depression ([4]; dose escalation, 25 to 500 mg orally, humans): No sedation, nausea or disorientation or respiratory depression; also recorded: well tolerated up to a dose of 500 mg orally; also recorded: no sedation or disorientation whatsoever
nausea score and sedation score compared with placebo (chi-square) ([4]; n = 7 vs placebo n = 5, P=0.9459 nausea, P=0.8661 sedation): no significant difference
Nausea score 0 (none), number of scores [4, 7]: 72
Nausea score 1 (mild), number of scores [4, 7]: 10
Nausea score 2 (moderate), number of scores [4, 7]: 1
Sedation score 0 (none), number of scores [4, 7]: 20
Sedation score 1 (mild), number of scores [4, 7]: 48
Sedation score 2 (moderate), number of scores [4, 7]: 15
sedative effects ([5]; 0.1 to 100 mg/kg intraperitoneally, rats): No sedative effects were observed
sedation, loss of coordination, abnormal behaviour ([5]; doses up to 300 mg/kg intraperitoneally (b128 prints 300 mg/g), rats): no sedative effects whatsoever; also recorded: no evidence of sedation or loss of coordination
sedation and anaesthesia (loss of righting reflex, loss of coordination in rotarod test) ([5]; ip, Saffan 2 ml/kg, alphaxalone 18 mg/kg, alphadolone 6 mg/kg, groups of 10 rats): no sedation or loss of righting reflex
